Usually inhibition stands for the drop in the measured response relative to a control, in per cent.

Here are results for 33 compounds from patent publication US4853403A, “3-phenylthiomethylstyrene derivative, process for preparing the same, and antiallergic agent and tyrosinekinase inhibiting agent containing the same” (Kanegafuchi Kagaku Kogyo Kabushiki Kaisha, priority 1985, dated 1989).

Where two headings read alike, the source gives them in different places.

Assay [1] concerns the target T1, epidermal growth factor acceptor-tyrosinekinase complex (Homo sapiens, UniProt P00533).
T1 construct: endogenous in cells; host or cells: A-431 (membrane specimen, not solubilized)
As to the kind of experiment: Tyrosinekinase inhibitory activity (A-431 membrane specimen, EGF-stimulated, [γ-32P]ATP). Type of assay: biochemical, human (A-431 cell line derived from human cancerous cell). The note with it: read-out: Inhibition rate (tyrosinekinase). The method, then:
Tyrosinekinase inhibitory activity of the compound of the present invention was measured by employing a method for measuring tyrosinekinase activity by G. Carpentor or by S. Cohen et al. [J. Biol. Chem., 254, 4884 (1979); J. Biol. Chem., 257, 1523 (1982)].
Cell line A-431 derived from human cancerous cell was cultured at 37° C. under the condition of 5% CO2 in Dulbecco's modified Eagle medium (made by DAINIPPON PHARMACEUTICAL CO., LTD.) containing 10% fetal bovine serum, 50 μg/ml of streptomycin, 50 IU/ml of penicillin G and 50 μg/ml of canamycin. The obtained cells were treated according to the above Cohen or Graham et al. to give membrane specimen containing epidermal growth factor acceptor-tyrosinekinase complex (hereinafter referred to as "membrane specimen"). The membrane specimen was employed in the following measurement without solubilization.
Sample dissolved in dimethylsulfoxide was added to a mixture of 20 mM of N-2-hydroxyethylpyperadino-N'-2-ethanesulfonate buffer (pH 7.4), 1 mM of MnCl2, 7.5 μg of bovine serum albumin and the membrane specimen (10 μg as protein). After incubation at 0° C. for 5 minutes, 100 ng of epidermal growth factor (hereinafter referred to as "EGF" was added and the mixture was further incubated at 0° C. for 15 minutes. [γ-^32 P]ATP (3000 Ci/mmol, 0.1 μCi) was added to make final volume of 70 μl. After incubation at 0° C. for 15 minutes, 50 μl of the reaction solution was soaked into Wattman 3 MM filter paper and immediately the reaction was stopped by 10% trichloroacetic acid-10 mM sodium pyrophosphate aqueous solution. The filter paper was sufficiently washed with the same solution and then washed with ethanol and dried. Radioactivity present in the filter paper was measured by liquid scintillation counter (A). Similarly, radioactivity was measured in case of the reaction without EGF (B), the reaction without the sample (C), and the reaction without both EGF and the sample (D) as a control.
Tyrosinekinase inhibition rate (%) was calculated by the following equation. [formula]

The subject of assay [2] is antigen-induced anaphylactic shock death. As to the kind of experiment: Protective effect against anaphylactic shock in actively sensitized guinea pigs. Format: in vivo, guinea pig (male). The note with it: Cavia porcellus, oral, 30 minutes before antigen inhalation, survival 90 minutes or more, read-out: Protecting Effect (Number of test animal survivied/Number of test animal) (converted). On the procedure:
[III] Protective effect against anaphylactic shock in actively sensitized guinea pigs
Antigen-induced anaphylactic shock death was observed according to John P. Devlin [Pulmonary and Antiallergic Drugs, John Wiley & Sons, 155 (1985)].
Each 100 mg/kg of ovalbumin dissolved in physiological saline was injected into peritoneal cavity and into gluteus of male guinea pigs weighing 250 to 350 g. 3 Days later, the animals were further injected intraperitoneally with ovalbumin (100 mg/kg). Those animals were employed for testing 3 to 4 weeks after first sensitization. Actively sensitized guinea pigs were pretreated subcutaneously with pyrilamine (1 mg/kg, 30 min.) to suppress histamine-dependent response and with propanolol ([…], 10 min.) to enhance the response induced by other than histamine before the antigen.
The animal was placed in a desiccator with a capacity of about 5 l and 0.5% aqueous solution of ovalbumin was inhaled with ultrasonic type nebulizer for five minutes. Anaphylactic shock death was observed and the animals survived for 90 minutes or more after antigen were estimated to be protected. The compounds of the present invention and antiasmatic agent were administered orally 30 minutes before the antigen inhalation. The control received vehicle alone similarly.

Assay [3] deals with homologous passive cutaneous anaphylaxis (PCA). Briefly: Inhibitory activity against homologous passive cutaneous anaphylaxis (PCA) in rats. Format: in vivo, rat (male Wistar). The note with it: 300 mg/kg, oral, 30 minutes before the antigen (tranilast). The method, then:
[II]Inhibitory activity against homologous passive cutaneous anaphylaxis (PCA) in rats
Antiserum was prepared according to I. Mota [Immunology, 7, 681(1964)] and the PCA reaction was conducted according to Maruyama et al. [Nippon yakurigakkaishi, 74, 179(1978)].
(1) Preparation of antiserum
An ovalbumin solution (2 mg/ml) was injected intramuscularly into both thighs of male Wistar rats weighing 200 to 260 g in a volume of 0.5 ml/100 g body weight, and pertussis vaccine (Bordetella pertussis, 2×10^10 /ml, Chibaken Kessei Kenkyujo) was intraperitoneally administered at 1 ml/rat. Twelve days later, blood was taken from posterior aorta under ether anesthesia and antiserum was stored at -80° C.
Group of 4 male Wistar rats weighing 180 to 210 g were employed. Back of the animals was shaved and each 0.05 ml of antiserum (1:32 dilution) was injected intradermally at four sites on the back. After 48 hours, 1 ml of a mixture of ovalbumin (1 mg/ml) and Evans blue (5 mg/ml) was injected intravenously into the tail. 30 Minutes later, the animals were killed under ether anesthesia. The blue-dyed area (mm^2) formed was measured and an inhibition rate(%) was calculated as compared with control.
Test compound suspended in a 2.5% acacia containing 0.2% Tween 80 was administered orally in a volume of 0.5 ml/100 g body weight 1 hour before the antigen. Tranilast was administered orally 30 minutes before the antigen.

T1 sequence (P00533 25-1210): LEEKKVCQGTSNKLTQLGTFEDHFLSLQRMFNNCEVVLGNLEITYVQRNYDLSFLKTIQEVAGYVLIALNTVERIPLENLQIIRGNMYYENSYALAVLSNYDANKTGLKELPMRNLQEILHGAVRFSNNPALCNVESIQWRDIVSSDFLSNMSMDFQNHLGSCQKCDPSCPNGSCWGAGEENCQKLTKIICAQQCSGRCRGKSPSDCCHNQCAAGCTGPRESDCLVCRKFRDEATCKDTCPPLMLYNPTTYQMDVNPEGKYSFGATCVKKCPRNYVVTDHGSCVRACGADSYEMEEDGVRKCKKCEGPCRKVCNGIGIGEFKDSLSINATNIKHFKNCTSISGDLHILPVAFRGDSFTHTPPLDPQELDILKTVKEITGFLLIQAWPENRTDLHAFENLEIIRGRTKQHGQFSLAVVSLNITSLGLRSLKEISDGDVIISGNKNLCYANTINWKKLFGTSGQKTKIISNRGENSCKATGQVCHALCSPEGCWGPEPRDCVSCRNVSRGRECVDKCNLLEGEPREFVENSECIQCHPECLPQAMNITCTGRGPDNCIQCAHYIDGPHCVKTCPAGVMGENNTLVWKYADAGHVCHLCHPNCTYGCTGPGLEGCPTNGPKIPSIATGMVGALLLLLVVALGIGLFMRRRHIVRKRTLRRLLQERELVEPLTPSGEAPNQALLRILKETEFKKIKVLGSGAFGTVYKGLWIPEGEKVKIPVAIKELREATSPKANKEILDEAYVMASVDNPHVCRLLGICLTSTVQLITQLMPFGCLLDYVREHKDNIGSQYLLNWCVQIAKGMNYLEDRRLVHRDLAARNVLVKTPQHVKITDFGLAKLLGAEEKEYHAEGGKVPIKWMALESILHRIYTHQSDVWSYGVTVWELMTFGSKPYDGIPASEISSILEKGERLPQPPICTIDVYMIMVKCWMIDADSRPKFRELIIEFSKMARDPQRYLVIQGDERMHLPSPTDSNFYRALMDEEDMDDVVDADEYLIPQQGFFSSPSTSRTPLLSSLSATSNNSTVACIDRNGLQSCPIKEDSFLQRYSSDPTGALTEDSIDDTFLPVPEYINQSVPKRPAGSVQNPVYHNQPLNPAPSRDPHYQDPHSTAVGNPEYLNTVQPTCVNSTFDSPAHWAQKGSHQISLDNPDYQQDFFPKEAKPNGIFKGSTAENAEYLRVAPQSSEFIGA
T1 sequence (P01132 977-1029 partner limits assumed): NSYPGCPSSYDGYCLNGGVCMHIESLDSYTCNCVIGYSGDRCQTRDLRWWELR

As for `CCOc1cc(C=C(C#N)C(N)=O)cc(CSc2ccccc2)c1OC(=O)c1ccccc1` [XVI], the inhibition at 10 µM in assay [1] (10 μM) is 40%. Moreover, in assay [2], the responders at 100 mg/kg is 25%.

In the case of `Cn1c(=O)c2[nH]cnc2n(C)c1=O` [theophylline, reference compound], in assay [2], the responders at 30 mg/kg is 50%.

Consider `CCOc1cc(C=C2CCOC2=O)cc(CSc2ccc(Cl)c(Cl)c2)c1O` [XXV], for which the inhibition at 10 µM in assay [1] (10 μM) was 27%. The responders at 30 mg/kg in assay [2] is 75%.

As for `CCOc1cc(C=C(C#N)C(N)=O)cc(CSc2ccc(Cl)c(Cl)c2)c1O` [XV], the inhibition at 10 µM in assay [1] (10 μM) was 69%. In addition, in assay [2], the responders at 30 mg/kg is 100%.

Turning to `CCOc1cc(C=C(C#N)C(N)=O)cc(CSc2c(Cl)cccc2Cl)c1O` [X], the inhibition at 10 µM in assay [1] (10 μM) is 44%. Also, the responders at 30 mg/kg in assay [2] is 75%.

Consider `CCOc1cc(C=C(C#N)C(N)=O)cc(CSc2cccc(OC)c2)c1O` [VIII], for which the inhibition at 10 µM in assay [1] (10 μM) is 72%. Also, the responders at 100 mg/kg in assay [2] was 25%.

With `COc1ccc(/C=C/C(=O)Nc2ccccc2C(=O)O)cc1OC` [tranilast, reference compound], the “Inhibition rate (PCA reaction, blue-dyed area)” value in assay [3] is given as 40%. In addition, in assay [2], the responders at 100 mg/kg was 0%.

`CCOc1cc(C=C(C#N)C(N)=O)cc(CSCCCc2ccccc2)c1O` [VI]: in assay [1] (10 μM), the inhibition at 10 µM was 55%. For the same compound, the responders at 100 mg/kg in assay [2] was 25%.

On to `CCOc1cc(C=C(C#N)C(N)=O)cc(CSc2cccc(Cl)c2)c1O` [XI], for which, in assay [1] (10 μM), the inhibition at 10 µM was 54%. Moreover, the responders at 100 mg/kg in assay [2] was 25%.

Turning to `O=C1NN(c2ccccc2)C(=O)C1=Cc1cc(O)c(O)c(CSc2ccccc2)c1` [XXXIV], the inhibition at 10 µM in assay [1] (10 μM) came out at 96%. For the same compound, the responders at 30 mg/kg in assay [2] is 50%.

On to `CCCCOc1cc(C=C2C(=O)NN(c3ccccc3)C2=O)cc(CSc2ccccc2)c1O` [XXXV], for which the inhibition at 10 µM in assay [1] (10 μM) worked out at 100%. Also, in assay [2], the responders at 100 mg/kg is 25%.

As for `CCOc1cc(C=C(C#N)C(N)=O)cc(CSc2ccc(OC)cc2)c1O` [II], the inhibition at 10 µM in assay [1] (10 μM) is 42%. Besides, in assay [2], the responders at 30 mg/kg was 75%.

In the case of `O=C1OCCC1=Cc1cc(O)c(O)c(CSc2ccc([N+](=O)[O-])cc2)c1` [XXVI], the inhibition at 10 µM in assay [1] (10 μM) worked out at 35%. Moreover, in assay [2], the responders at 100 mg/kg was 25%.

Regarding `CCOc1cc(C=C(C#N)C(N)=O)cc(CSc2ccc(Br)cc2)c1O` [IV], the inhibition at 10 µM in assay [1] (10 μM) is 74%. For the same compound, the responders at 100 mg/kg in assay [2] was 25%.

Turning to `CCOc1cc(C=C2CCNC2=O)cc(CSc2ccc(OC)cc2)c1OC` [XXIX], the inhibition at 10 µM in assay [1] (10 μM) was determined as 30%. Further, the responders at 100 mg/kg in assay [2] is 25%.

For `CCOc1cc(C=C(C#N)C(N)=O)cc(CSc2ccccc2)c1OC(C)=O` [XVII], the inhibition at 10 µM in assay [1] (10 μM) was 36%. In addition, in assay [2], the responders at 100 mg/kg was 25%.

`CCOc1cc(C=C(C#N)C(N)=O)cc(CSc2ccc([N+](=O)[O-])cc2)c1O` [III]: the inhibition at 10 µM in assay [1] (10 μM) turned out to be 42%. For the same compound, in assay [2], the responders at 100 mg/kg is 25%.

For `COc1cc(C=C2CCNC2=O)cc(CSc2ccc(C)cc2)c1O` [XXVIII], the inhibition at 10 µM in assay [1] (10 μM) was found to be 55%. The responders at 100 mg/kg in assay [2] is 25%.

Consider `CCOc1cc(C=C(C#N)C(N)=O)cc(CSc2ccc(C(C)(C)C)cc2)c1O` [XVIII], for which the inhibition at 10 µM in assay [1] (10 μM) came out at 37%. The responders at 30 mg/kg in assay [2] is 75%.

As for `CCOc1cc(C=C(C#N)C(N)=O)cc(CSc2ccccc2)c1OC` [XIII], in assay [1] (10 μM), the inhibition at 10 µM is 31%. In addition, the responders at 30 mg/kg in assay [2] is 50%.

In the case of `CCOc1cc(C=C(C#N)C(N)=O)cc(CSc2ccccc2C(=O)OC)c1OC(C)=O` [XXI], the inhibition at 10 µM in assay [1] (10 μM) amounted to 31%. In addition, in assay [2], the responders at 100 mg/kg is 25%.

Regarding `CCOc1cc(C=C2C(=O)NN(c3ccccc3)C2=O)cc(CSc2ccc(Cl)cc2)c1O` [XXXVI], the inhibition at 10 µM in assay [1] (10 μM) is 91%. Besides, the responders at 100 mg/kg in assay [2] was 25%.

Take `CCOc1cc(C=C(C#N)C(N)=O)cc(CSc2ccc(C)cc2)c1O` [IX]: in assay [1] (10 μM), the inhibition at 10 µM came to 58%. Moreover, the responders at 30 mg/kg in assay [2] was 50%.

As to `CCOc1cc(C=C2CCNC2=O)cc(CSc2ccccc2)c1OC(=O)c1ccccc1` [XXX], in assay [1] (10 μM), the inhibition at 10 µM came out at 32%. Also, the responders at 30 mg/kg in assay [2] was 50%.

`COc1cc(C=C(C#N)C(N)=O)cc(CSc2ccccc2)c1O` [XII]: the inhibition at 10 µM in assay [1] was determined as 86%. Besides, the responders at 30 mg/kg in assay [2] was 50%.

As for `COc1cc(C=C2C(=O)NN(c3ccccc3)C2=O)cc(CSc2ccccc2)c1O` [XXXII], in assay [1] (10 μM), the inhibition at 10 µM was found to be 100%. Also, the responders at 100 mg/kg in assay [2] is 25%.

For `CCOc1cc(C=C(C#N)C(N)=O)cc(CSc2ccc(Cl)cc2)c1O` [XIV], the inhibition at 10 µM in assay [1] (10 μM) amounted to 29%. In addition, the responders at 30 mg/kg in assay [2] was 100%.

On to `CCOc1cc(C=C(C#N)C(N)=O)cc(CSc2ccccc2OC)c1O` [VII], for which, in assay [1] (10 μM), the inhibition at 10 µM is 77%. The responders at 30 mg/kg in assay [2] is 75%.

With `N#CC(=Cc1cc(O)c(O)c(CSc2ccccc2)c1)C(N)=O` [XIX], the inhibition at 10 µM in assay [1] (10 μM) is 100%. The responders at 100 mg/kg in assay [2] was 25%.

Take `CCOc1cc(C=C2C(=O)NN(c3ccccc3)C2=O)cc(CSc2ccc(Br)cc2)c1O` [XXXIII]: the inhibition at 10 µM in assay [1] (10 μM) came out at 71%. In assay [2], the responders at 30 mg/kg is 75%.

In the case of `CCOc1cc(C=C(C#N)C(N)=O)cc(CSc2ccc(O)cc2)c1O` [XX], in assay [1] (10 μM), the inhibition at 10 µM stood at 91%. Besides, in assay [2], the responders at 100 mg/kg was 25%.

For the compound `CCOC(=O)C(=Cc1cc(CSc2ccc(C(C)(C)C)cc2)c(O)c(OCC)c1)S(C)(=O)=O` [XXIII], in assay [1] (10 μM), the inhibition at 10 µM was found to be 40%. The responders at 100 mg/kg in assay [2] was 25%.

As for `CCOc1cc(C=C(C#N)C(N)=O)cc(CSc2c(F)c(F)c(F)c(F)c2F)c1O` [V], in assay [1] (10 μM), the inhibition at 10 µM was determined as 60%. Moreover, the responders at 30 mg/kg in assay [2] is 50%.
